{
  "source": "patent US7671026B2",
  "about": "“Cytomodulating peptides for treating interstitial cystitis” (Sangstat Medical Corporation, priority 2002, dated 2010)",
  "key": {"TNF-α": {"system": "TNF-α", "assay": "Ex vivo LPS-stimulated bladder tissue culture, TNF-α ELISA", "assay_type": "cell-based, mice", "conditions": "first study; BALB/c bladder tissue, 1 ug LPS + RDP58 50 uM final, 18 hrs, each pool", "protocol": "The ability of RDP58 peptide bc-1nL in inhibiting cytokine production in bladder cells was examined. In a first study, BALB/c mice were euthanized with CO2 and the bladders harvested after voiding it of urine. Bladders were gently washed with RMPI 1640 media containing penicillin and streptomycin and minced into 1-2 mm pieces. Equal amounts of tissue were incubated overnight at 37° C. in 0.5 ml of RPMI culture medium in the presence of 1 ug LPS (E. coli. 055:B5; Sigma), 50 ul of RDP58 peptide (1 mg/ml) (50 uM final concentration), 1 ug LPS+50 ul of RDP58 peptde, or media alone. The culture supernatants were collected after 18 hrs, clarified by centrifugation, and assayed by ELISA for cytokines TNF-αand IFN-γ.\nIn a second study, bladders from 12 normal mice were harvested, pooled into four sets of three bladders, and the tissues minced into 1-2 mm pieces. Equal amounts of tissue were incubated overnight in culture media containing LPS, RDP58 peptide, LPS+RDP58 peptide, or media, as described above. After clarifying the culture medium by centrifugation, supernatants were assayed for presence of TNF-α by ELISA."}, "CD3 positive cells": {"system": "CD3 positive cells", "assay": "Chronic interstitial cystitis model, CD3/CD45 immunostaining of bladder sections", "assay_type": "in vivo, mice", "conditions": "animals exposed to LPS, then RDP58; 24 hrs and 72 hrs after RDP58 treatment", "protocol": "Chronic IC model was induced in mice by transurethrally catheterizing mice and instilling with 15 ug of E.coli. lipopolysaccharide (LPS) in 150 ul. Controls were instilled with 150 ul of saline. Animals were treated three times per week for two weeks. To determine the effect of RDP58, animals were instilled with the peptide following 14 days of LPS instillation. Histological analyses of the bladders were carried out 24 or 72 hrs post treatment. Cytokine levels were assayed by removing the bladder 24 hrs following RDP58 treatment, culturing the tissue ex vivo, and assaying for cytokines, as described above. Bladder permeability used the FITC-dextran assay.\nBladder from the various animal groups were removed after the treatments and then sectioned. Morphology was examined by staining with haematoxylin-eosin. Sections were examined for the presence of T-cell differentiation markers CD3 or CD45 by immunostaining with anti-CD45 and anti-CD3 antibodies."}},
  "data": [
    {"substance": "Arg-nL-nL-nL-Arg-nL-nL-nL-Gly-Tyr [RDP58]", "values": [
      {"measurement": "inhibition of TNF-α production", "setting": "TNF-α", "result": "about 30%"},
      {"measurement": "CD3 positive cells in bladder tissue sections", "setting": "CD3 positive cells", "result": "reduction of CD3 positive cells"}
    ]}
  ]
}
